Measured values published in ChEMBL document CHEMBL4507258 (2021).

Tests used:
[1] = system: Tyrosine-protein kinase ABL1 (Homo sapiens), P00519 [H396P]; conditions: Compound concentration 1000.0 nM
[2] = system: Tyrosine-protein kinase ABL1 (Homo sapiens), P00519 [Y253F]; conditions: Compound concentration 1000.0 nM
[3] = target: ALK tyrosine kinase receptor (Homo sapiens) (UniProt Q9UM73); conditions: Compound concentration 1000.0 nM
[4] = target: Mitotic checkpoint serine/threonine-protein kinase BUB1 (Homo sapiens) (UniProt O43683); conditions: Compound concentration 1000.0 nM
[5] = target: Calcium/calmodulin-dependent protein kinase type IV (Homo sapiens) (UniProt Q16566); conditions: Compound concentration 1000.0 nM
[6] = target: Calcium/calmodulin-dependent protein kinase kinase 2 (Homo sapiens) (UniProt Q96RR4); conditions: Compound concentration 1000.0 nM
[7] = target: Cyclin-dependent kinase 4 (Homo sapiens) (UniProt P11802); conditions: Compound concentration 1000.0 nM
[8] = target: Tyrosine-protein kinase CSK (Homo sapiens) (UniProt P41240); conditions: Compound concentration 1000.0 nM
[9] = system: Epidermal growth factor receptor (Homo sapiens), P00533 [UNDEFINED MUTATION]; conditions: Compound concentration 1000.0 nM
[10] = system: Epidermal growth factor receptor (Homo sapiens), P00533 [G719C]; conditions: Compound concentration 1000.0 nM
[11] = target: Ephrin type-A receptor 2 (Homo sapiens) (UniProt P29317); conditions: Compound concentration 1000.0 nM
[12] = system: Fibroblast growth factor receptor 3 (Homo sapiens), P22607 [G697C]; conditions: Compound concentration 1000.0 nM
[13] = target: Beta-adrenergic receptor kinase 1 (Homo sapiens) (UniProt P25098); conditions: Compound concentration 1000.0 nM
[14] = target: Homeodomain-interacting protein kinase 1 (Homo sapiens) (UniProt Q86Z02); conditions: Compound concentration 1000.0 nM
[15] = target: Homeodomain-interacting protein kinase 2 (Homo sapiens) (UniProt Q9H2X6); conditions: Compound concentration 1000.0 nM
[16] = target: Tyrosine-protein kinase Lck (Homo sapiens) (UniProt P06239); conditions: Compound concentration 1000.0 nM
[17] = target: MAP kinase-activated protein kinase 2 (Homo sapiens) (UniProt P49137); conditions: Compound concentration 1000.0 nM
[18] = target: Microtubule-associated serine/threonine-protein kinase 1 (Homo sapiens) (UniProt Q9Y2H9); conditions: Compound concentration 1000.0 nM
[19] = target: Dual specificity mitogen-activated protein kinase kinase 2 (Homo sapiens) (UniProt P36507); conditions: Compound concentration 1000.0 nM
[20] = system: Hepatocyte growth factor receptor (Homo sapiens), P08581 [Y1235D]; conditions: Compound concentration 1000.0 nM
[21] = target: Serine/threonine-protein kinase MRCK beta (Homo sapiens) (UniProt Q9Y5S2); conditions: Compound concentration 1000.0 nM
[22] = target: Myosin-IIIb (Homo sapiens) (UniProt Q8WXR4); conditions: Compound concentration 1000.0 nM
[23] = target: Serine/threonine-protein kinase 38-like (Homo sapiens) (UniProt Q9Y2H1); conditions: Compound concentration 1000.0 nM
[24] = target: Mitogen-activated protein kinase kinase kinase 14 (Homo sapiens) (UniProt Q99558); conditions: Compound concentration 1000.0 nM
[25] = target: Phosphorylase b kinase gamma catalytic chain, skeletal muscle/heart isoform (Homo sapiens) (UniProt Q16816); conditions: Compound concentration 1000.0 nM
[26] = system: Phosphatidylinositol 4,5-bisphosphate 3-kinase catalytic subunit alpha isoform (Homo sapiens), P42336 [C420R]; conditions: Compound concentration 1000.0 nM
[27] = target: Serine/threonine-protein kinase D3 (Homo sapiens) (UniProt O94806); conditions: Compound concentration 1000.0 nM
[28] = target: Serine/threonine-protein kinase 36 (Homo sapiens) (UniProt Q9NRP7); conditions: Compound concentration 1000.0 nM
[29] = target: TGF-beta receptor type-1 (Homo sapiens) (UniProt P36897); conditions: Compound concentration 1000.0 nM
[30] = target: Serine/threonine-protein kinase tousled-like 1 (Homo sapiens) (UniProt Q9UKI8); conditions: Compound concentration 1000.0 nM
[31] = target: Tyrosine-protein kinase receptor TYRO3 (Homo sapiens) (UniProt Q06418); conditions: Compound concentration 1000.0 nM
[32] = target: Serine/threonine-protein kinase ULK2 (Homo sapiens) (UniProt Q8IYT8); conditions: Compound concentration 1000.0 nM
[33] = target: Serine/threonine-protein kinase ULK3 (Homo sapiens) (UniProt Q6PHR2); conditions: Compound concentration 1000.0 nM
[34] = target: Wee1-like protein kinase 2 (Homo sapiens) (UniProt P0C1S8); conditions: Compound concentration 1000.0 nM
[35] = target: Serine/threonine-protein kinase 32C (Homo sapiens) (UniProt Q86UX6); conditions: Compound concentration 1000.0 nM
[36] = target: Mitogen-activated protein kinase kinase kinase 19 (Homo sapiens) (UniProt Q56UN5); conditions: Compound concentration 1000.0 nM
[37] = target: T1, D(4) dopamine receptor (Homo sapiens) (UniProt P21917); conditions: Compound concentration 10.0 uM
T1 sequence (whole entry): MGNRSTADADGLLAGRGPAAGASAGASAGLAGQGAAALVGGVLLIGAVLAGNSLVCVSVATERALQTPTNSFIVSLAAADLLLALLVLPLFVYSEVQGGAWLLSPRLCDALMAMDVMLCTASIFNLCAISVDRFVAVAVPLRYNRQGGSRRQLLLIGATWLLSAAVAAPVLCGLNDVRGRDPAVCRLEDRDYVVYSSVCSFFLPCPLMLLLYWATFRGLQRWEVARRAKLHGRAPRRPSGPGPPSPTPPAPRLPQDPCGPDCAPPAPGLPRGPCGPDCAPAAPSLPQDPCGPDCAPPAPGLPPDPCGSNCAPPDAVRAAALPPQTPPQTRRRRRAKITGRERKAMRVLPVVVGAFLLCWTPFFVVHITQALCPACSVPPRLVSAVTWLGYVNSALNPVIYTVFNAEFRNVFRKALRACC

[38] = target: Alpha-1A adrenergic receptor (Homo sapiens) (UniProt P35348); conditions: Compound concentration 10.0 uM
[39] = target: Alpha-1B adrenergic receptor (Homo sapiens) (UniProt P35368); conditions: Compound concentration 10.0 uM
Alpha-1B adrenergic receptor (Homo sapiens), sequence (P35368 whole entry): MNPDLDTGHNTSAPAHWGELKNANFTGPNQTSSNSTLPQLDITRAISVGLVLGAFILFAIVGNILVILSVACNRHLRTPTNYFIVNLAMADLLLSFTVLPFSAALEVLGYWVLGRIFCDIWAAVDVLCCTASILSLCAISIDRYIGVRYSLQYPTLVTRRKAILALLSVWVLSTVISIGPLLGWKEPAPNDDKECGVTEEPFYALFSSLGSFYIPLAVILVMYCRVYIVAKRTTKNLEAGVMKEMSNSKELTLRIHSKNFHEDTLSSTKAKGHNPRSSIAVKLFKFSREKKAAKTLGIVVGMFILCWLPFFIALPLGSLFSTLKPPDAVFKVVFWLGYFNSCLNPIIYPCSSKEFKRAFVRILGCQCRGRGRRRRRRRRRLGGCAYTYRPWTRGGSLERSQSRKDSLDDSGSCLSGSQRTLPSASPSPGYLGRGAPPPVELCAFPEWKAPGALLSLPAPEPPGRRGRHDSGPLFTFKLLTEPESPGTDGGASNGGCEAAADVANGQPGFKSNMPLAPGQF

Serine/threonine-protein kinase 32C (Homo sapiens), sequence (Q86UX6 whole entry): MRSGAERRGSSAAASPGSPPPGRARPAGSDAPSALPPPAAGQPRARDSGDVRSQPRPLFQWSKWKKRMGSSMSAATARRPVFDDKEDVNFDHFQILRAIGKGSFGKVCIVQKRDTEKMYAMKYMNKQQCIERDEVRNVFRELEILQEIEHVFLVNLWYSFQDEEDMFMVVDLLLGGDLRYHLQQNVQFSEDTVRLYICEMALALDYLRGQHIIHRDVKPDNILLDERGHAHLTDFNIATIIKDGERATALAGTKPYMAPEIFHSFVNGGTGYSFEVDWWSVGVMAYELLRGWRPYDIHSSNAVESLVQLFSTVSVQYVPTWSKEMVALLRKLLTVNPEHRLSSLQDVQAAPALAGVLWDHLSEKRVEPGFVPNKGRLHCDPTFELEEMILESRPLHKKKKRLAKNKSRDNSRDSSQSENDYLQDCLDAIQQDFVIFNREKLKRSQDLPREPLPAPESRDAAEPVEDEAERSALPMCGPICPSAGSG
MAP kinase-activated protein kinase 2 (Homo sapiens), sequence (P49137 whole entry, looked up): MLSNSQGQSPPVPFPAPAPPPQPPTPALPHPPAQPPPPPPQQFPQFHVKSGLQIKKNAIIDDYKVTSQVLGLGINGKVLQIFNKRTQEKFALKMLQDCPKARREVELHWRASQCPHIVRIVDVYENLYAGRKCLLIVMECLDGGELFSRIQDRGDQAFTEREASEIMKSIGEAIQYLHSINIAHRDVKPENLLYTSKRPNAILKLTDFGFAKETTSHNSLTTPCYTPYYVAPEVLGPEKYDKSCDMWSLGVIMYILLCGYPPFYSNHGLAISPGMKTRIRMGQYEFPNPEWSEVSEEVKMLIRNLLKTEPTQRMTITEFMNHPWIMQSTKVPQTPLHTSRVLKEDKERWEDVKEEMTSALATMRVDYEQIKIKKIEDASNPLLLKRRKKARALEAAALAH
Serine/threonine-protein kinase 38-like (Homo sapiens), sequence (Q9Y2H1 2-464 limits assumed): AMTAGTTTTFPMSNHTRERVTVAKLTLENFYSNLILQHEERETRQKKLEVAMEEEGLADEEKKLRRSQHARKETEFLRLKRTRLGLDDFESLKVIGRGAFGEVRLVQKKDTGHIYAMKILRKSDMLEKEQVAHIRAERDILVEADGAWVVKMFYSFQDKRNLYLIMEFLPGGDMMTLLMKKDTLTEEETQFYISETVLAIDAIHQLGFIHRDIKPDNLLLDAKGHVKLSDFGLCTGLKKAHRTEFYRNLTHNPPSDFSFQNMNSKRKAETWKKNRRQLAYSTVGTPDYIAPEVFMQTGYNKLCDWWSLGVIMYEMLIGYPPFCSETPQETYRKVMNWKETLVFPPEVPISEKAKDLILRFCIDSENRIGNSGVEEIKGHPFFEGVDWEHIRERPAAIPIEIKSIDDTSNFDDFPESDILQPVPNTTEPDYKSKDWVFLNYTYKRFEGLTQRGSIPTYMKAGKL
Alpha-1A adrenergic receptor (Homo sapiens), sequence (P35348 whole entry): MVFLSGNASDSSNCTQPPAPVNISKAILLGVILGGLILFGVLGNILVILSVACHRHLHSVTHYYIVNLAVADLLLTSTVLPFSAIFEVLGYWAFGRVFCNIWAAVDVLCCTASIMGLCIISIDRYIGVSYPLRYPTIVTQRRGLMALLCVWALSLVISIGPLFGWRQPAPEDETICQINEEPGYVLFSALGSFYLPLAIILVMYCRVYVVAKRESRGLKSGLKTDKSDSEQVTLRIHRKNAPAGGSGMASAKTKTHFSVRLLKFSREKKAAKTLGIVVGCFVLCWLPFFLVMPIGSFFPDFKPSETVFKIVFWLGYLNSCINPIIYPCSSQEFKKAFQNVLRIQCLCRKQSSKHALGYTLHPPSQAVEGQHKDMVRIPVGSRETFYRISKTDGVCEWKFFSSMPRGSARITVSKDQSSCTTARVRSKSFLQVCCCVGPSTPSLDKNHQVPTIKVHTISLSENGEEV
Tyrosine-protein kinase Lck (Homo sapiens), sequence (P06239 2-509 limits assumed): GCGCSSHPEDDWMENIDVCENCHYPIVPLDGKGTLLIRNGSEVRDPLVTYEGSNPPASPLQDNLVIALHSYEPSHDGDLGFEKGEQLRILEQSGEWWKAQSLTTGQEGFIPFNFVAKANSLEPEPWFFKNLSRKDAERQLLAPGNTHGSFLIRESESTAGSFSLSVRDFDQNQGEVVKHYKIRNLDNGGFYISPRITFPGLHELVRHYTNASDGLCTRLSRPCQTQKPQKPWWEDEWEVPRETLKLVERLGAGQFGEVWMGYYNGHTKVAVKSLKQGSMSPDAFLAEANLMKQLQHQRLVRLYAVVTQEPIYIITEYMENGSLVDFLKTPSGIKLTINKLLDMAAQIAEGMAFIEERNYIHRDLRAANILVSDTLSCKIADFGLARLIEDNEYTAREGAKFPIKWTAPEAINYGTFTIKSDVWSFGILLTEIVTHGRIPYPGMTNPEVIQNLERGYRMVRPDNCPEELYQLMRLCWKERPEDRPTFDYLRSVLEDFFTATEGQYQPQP
Phosphatidylinositol 4,5-bisphosphate 3-kinase catalytic subunit alpha isoform (Homo sapiens), P42336 [C420R], sequence (P42336 whole entry C420R, canonical isoform): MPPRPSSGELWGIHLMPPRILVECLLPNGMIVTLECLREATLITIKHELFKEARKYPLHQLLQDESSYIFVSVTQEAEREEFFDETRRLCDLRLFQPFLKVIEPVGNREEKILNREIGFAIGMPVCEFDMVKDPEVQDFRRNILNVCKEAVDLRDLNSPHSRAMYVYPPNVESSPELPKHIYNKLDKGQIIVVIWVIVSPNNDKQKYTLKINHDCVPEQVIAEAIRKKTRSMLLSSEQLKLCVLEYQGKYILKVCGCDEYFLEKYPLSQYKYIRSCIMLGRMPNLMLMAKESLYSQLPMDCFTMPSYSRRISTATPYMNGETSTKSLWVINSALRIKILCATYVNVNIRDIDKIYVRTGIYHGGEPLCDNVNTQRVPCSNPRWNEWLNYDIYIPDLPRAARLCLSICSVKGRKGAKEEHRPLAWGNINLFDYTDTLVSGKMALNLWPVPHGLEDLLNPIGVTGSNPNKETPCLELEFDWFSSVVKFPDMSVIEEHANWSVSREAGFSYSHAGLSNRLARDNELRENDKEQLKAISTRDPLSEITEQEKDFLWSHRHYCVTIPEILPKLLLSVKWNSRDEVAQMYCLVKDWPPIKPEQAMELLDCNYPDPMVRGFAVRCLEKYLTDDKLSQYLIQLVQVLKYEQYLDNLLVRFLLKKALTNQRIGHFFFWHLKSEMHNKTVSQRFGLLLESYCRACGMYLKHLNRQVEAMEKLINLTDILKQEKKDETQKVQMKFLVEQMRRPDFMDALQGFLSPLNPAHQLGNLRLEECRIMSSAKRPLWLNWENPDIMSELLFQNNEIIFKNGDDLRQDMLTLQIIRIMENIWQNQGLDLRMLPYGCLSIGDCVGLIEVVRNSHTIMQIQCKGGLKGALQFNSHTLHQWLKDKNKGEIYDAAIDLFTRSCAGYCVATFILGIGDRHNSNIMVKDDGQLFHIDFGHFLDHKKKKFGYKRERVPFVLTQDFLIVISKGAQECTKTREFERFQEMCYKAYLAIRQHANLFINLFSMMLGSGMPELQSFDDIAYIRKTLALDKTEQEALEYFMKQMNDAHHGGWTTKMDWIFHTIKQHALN
Dual specificity mitogen-activated protein kinase kinase 2 (Homo sapiens), sequence (P36507 whole entry): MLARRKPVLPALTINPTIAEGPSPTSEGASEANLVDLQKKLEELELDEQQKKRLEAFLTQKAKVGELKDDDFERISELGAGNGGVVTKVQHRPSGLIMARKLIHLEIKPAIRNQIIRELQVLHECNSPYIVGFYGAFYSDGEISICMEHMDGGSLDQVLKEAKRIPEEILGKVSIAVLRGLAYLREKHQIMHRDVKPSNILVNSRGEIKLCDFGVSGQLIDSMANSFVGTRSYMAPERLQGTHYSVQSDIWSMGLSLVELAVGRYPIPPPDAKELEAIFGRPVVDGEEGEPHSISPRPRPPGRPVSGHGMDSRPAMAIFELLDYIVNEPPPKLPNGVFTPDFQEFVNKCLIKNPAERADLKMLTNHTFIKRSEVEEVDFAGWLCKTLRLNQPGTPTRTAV
Tyrosine-protein kinase CSK (Homo sapiens), sequence (P41240 2-450 limits assumed): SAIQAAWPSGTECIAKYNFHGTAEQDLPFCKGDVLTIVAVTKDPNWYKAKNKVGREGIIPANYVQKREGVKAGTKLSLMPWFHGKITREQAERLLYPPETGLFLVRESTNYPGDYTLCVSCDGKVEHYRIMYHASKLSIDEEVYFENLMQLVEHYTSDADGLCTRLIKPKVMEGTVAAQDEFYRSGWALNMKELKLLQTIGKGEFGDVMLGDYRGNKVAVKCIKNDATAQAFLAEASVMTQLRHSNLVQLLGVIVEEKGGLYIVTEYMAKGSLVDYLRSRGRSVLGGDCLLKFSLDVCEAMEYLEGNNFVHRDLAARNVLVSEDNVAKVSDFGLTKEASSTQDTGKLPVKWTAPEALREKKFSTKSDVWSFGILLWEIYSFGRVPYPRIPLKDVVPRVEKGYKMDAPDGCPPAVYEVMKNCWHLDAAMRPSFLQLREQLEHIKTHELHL

Row | SMILES | residual activity [1] [%] | residual activity [2] [%] | residual activity [3] [%] | residual activity [4] [%] | residual activity [5] [%] | residual activity [6] [%] | residual activity [7] [%] | residual activity [8] [%] | residual activity [9] [%] | residual activity [10] [%] | residual activity [11] [%] | residual activity [12] [%] | residual activity [13] [%] | residual activity [14] [%] | residual activity [15] [%] | residual activity [16] [%] | residual activity [17] [%] | residual activity [18] [%] | residual activity [19] [%] | residual activity [20] [%] | further results
1 | CCCCN(CCCC)C(=O)CN1C[C@@H](c2cc(OC)c3c(c2)OCO3)[C@H](C(=O)O)[C@H]1CC(C)(C)CCC [A-545] | 100 | 100 | 100 | 94.9 | 100 | 87.2 | 100 | 100 | 70.3 | 100 | 97.8 | 94 | 97.8 | 77.3 | 97.1 | 99.1 | 84.2 | 100 | 98 | 100 | residual activity [21]: 100%; residual activity [22]: 91%; residual activity [23]: 92.4%; residual activity [24]: 100%; residual activity [25]: 97.5%; residual activity [26]: 99.4%; residual activity [27]: 100%; residual activity [28]: 75%; residual activity [29]: 100%; residual activity [30]: 82.4%; residual activity [31]: 97.1%; residual activity [32]: 89.2%; residual activity [33]: 90.7%; residual activity [34]: 89.1%; residual activity [35]: 100%; residual activity [36]: 100%; inhibition [37]: 87.1%; inhibition [38]: 23.3%; inhibition [39]: 6.5%
2 | CCCCN(CCCC)C(=O)CN1C[C@H](c2cc(OC)c3c(c2)OCO3)[C@@H](C(=O)O)[C@@H]1CC(C)(C)CCC [ABT-546] | 96.1 | 86.7 | 58.3 | 75.4 | 100 | 100 | 70.3 | 100 | 100 | 95.4 | 100 | 80.2 | 71.8 | 100 | 82.3 | 100 | 100 | 100 | 69.7 | 100 | residual activity [21]: 100%; residual activity [22]: 88.6%; residual activity [23]: 100%; residual activity [24]: 100%; residual activity [25]: 100%; residual activity [26]: 100%; residual activity [27]: 90.2%; residual activity [28]: 100%; residual activity [29]: 98.6%; residual activity [30]: 100%; residual activity [31]: 100%; residual activity [32]: 88.8%; residual activity [33]: 86.7%; residual activity [34]: 100%; residual activity [35]: 100%; residual activity [36]: 90.3%; inhibition [37]: 21.7%; inhibition [38]: -2.13%; inhibition [39]: -7.9%
